The first assay has as its target T1, Human autotaxin enzyme (Homo sapiens, UniProt Q13822).
T1 construct: purchased R&D System
Put plainly: Evaluation of autotaxin inhibitor, Method B (Test Example 2): TG-mTMP fluorescence. It counts as biochemical. The following applies: Assay Method B (Test Example 2), human autotaxin; read-out: Inhibitory Activity (autotaxin enzyme inhibitory activity, IC50 class). The method in brief: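 Human autotaxin in Tris-HCl pH 7.5 buffer with NaCl, MgCl2 and 0.1% BSA was reacted with TG-mTMP (0.5 μM solution added) and test compound for 2 hours at room temperature.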
Turning to `CCCCCn1c(N(C)C)cc(=O)n2cc(-c3ccc(Cl)cc3)nc12` [Compound 231], the IC50 was less than 10 nM.
The same measure, in the same setting: the value for `CCCCCn1c(N2CCN(C)CC2)cc(=O)n2cc(-c3ccc(Cl)cc3)nc12` [Compound 232] was less than 10 nM.
On the same count and under the same terms, the figure for `CCCCCn1c(NCc2nccs2)cc(=O)n2cc(-c3ccc(Cl)cc3)nc12` [Compound 233] is 10 to 100 nM; for `CCCCCn1c(N2CCOCC2)cc(=O)n2cc(-c3ccc(Cl)cc3)nc12` [Compound 234] it is less than 10 nM.
The same measure, in the same setting: the figure for `CCCCCn1c(NCCN(C)C)cc(=O)n2cc(-c3ccc(Cl)cc3)nc12` [Compound 235] is 10 to 100 nM.
Consider `CCCCCn1c(NCCNC(C)=O)cc(=O)n2cc(-c3ccc(Cl)cc3)nc12` [Compound 236], for which the IC50 fell in the range of 10 to 100 nM.
Same read-out and setting: the value for `CCCCCn1c(NCc2ccc(N(C)C)cc2)cc(=O)n2cc(-c3ccc(Cl)cc3)nc12` [Compound 237] was 10 to 100 nM.
On the same count and under the same terms, the value for `CCCCCn1c(NCCN2CCOCC2)cc(=O)n2cc(-c3ccc(Cl)cc3)nc12` [Compound 238] was less than 10 nM; that for `CCCCCn1c(N2C[C@H]3CC[C@@H](C2)O3)cc(=O)n2cc(-c3ccc(Cl)cc3)nc12` [Compound 239] was 10 to 100 nM.
Same read-out and setting: the value for `CCCCCn1c(N2CCN(CC(=O)N(C)C)CC2)cc(=O)n2cc(-c3ccc(Cl)cc3)nc12` [Compound 240] was less than 10 nM; that for `CCCCCn1c(NCC(=O)N2CCN(C)CC2)cc(=O)n2cc(-c3ccc(Cl)cc3)nc12` [Compound 241] was less than 10 nM.
Regarding `CCCCCn1c(N2CCN(CCCOC)CC2)cc(=O)n2cc(-c3ccc(Cl)cc3)nc12` [Compound 243], the IC50 was less than 10 nM.
`CCCCCn1c(N2CCC(N3CCOCC3)CC2)cc(=O)n2cc(-c3ccc(Cl)cc3)nc12` [Compound 244]: the concentration for half-maximal inhibition (IC50) is 10 to 100 nM.
Same read-out and setting: the value for `CCCCCn1c(N2CCN(c3cc(F)cc(F)c3)CC2)cc(=O)n2cc(-c3ccc(Cl)cc3)nc12` [Compound 245] was 10 to 100 nM; that for `CCCCCn1c(N2CCCCC2)cc(=O)n2cc(-c3ccc(Cl)cc3)nc12` [Compound 246] was 10 to 100 nM; that for `CCCCCn1c(N2CCCCCC2)cc(=O)n2cc(-c3ccc(Cl)cc3)nc12` [Compound 247] was 10 to 100 nM.
Still for that read-out and setting: the figure for `CCCCCn1c(NC)cc(=O)n2cc(-c3ccc(Cl)cc3)nc12` [Compound 248] is 10 to 100 nM.
The same measure, in the same setting: the value for `CCCCCn1c(NCc2ccc3c(c2)OCO3)cc(=O)n2cc(-c3ccc(Cl)cc3)nc12` [Compound 249] was 10 to 100 nM; that for `CCCCCn1c(NCCOC)cc(=O)n2cc(-c3ccc(Cl)cc3)nc12` [Compound 250] was 10 to 100 nM; that for `CCCCCn1c(NCCc2ccccc2)cc(=O)n2cc(-c3ccc(Cl)cc3)nc12` [Compound 251] was 10 to 100 nM.
For the compound `CCCCCn1c(N(CCO)CCO)cc(=O)n2cc(-c3ccc(Cl)cc3)nc12` [Compound 253], the IC50 fell in the range of 10 to 100 nM.
Same read-out and setting: the figure for `CCCCCn1c(N2CCNCC2)cc(=O)n2cc(-c3ccc(Cl)cc3)nc12` [Compound 254] is less than 10 nM; for `CCCCCn1c(N2C(C)CCC2C)cc(=O)n2cc(-c3ccc(Cl)cc3)nc12` (centres unmarked) [Compound 255] it is less than 10 nM; for `CCCCCn1c(N2CCC[C@H]2C)cc(=O)n2cc(-c3ccc(Cl)cc3)nc12` [Compound 256] it is less than 10 nM.
The same measure, in the same setting: the figure for `CCCCCn1c(N2CCC(C)C2)cc(=O)n2cc(-c3ccc(Cl)cc3)nc12` (centres unmarked) [Compound 257] is less than 10 nM; for `CCCCCn1c(N2CCC[C@@H]2C)cc(=O)n2cc(-c3ccc(Cl)cc3)nc12` [Compound 258] it is 10 to 100 nM; for `CCCCCn1c(N2CCCC2C)cc(=O)n2cc(-c3ccc(Cl)cc3)nc12` (centres unmarked) [Compound 259] it is 10 to 100 nM.
Still for that read-out and setting: the figure for `CCCCCn1c(OC2CCCC2)cc(=O)n2cc(-c3ccc(Cl)cc3)nc12` [Compound 260] is 10 to 100 nM.
In the case of `CCCCCn1c(OC(C)c2ccccc2)cc(=O)n2cc(-c3ccc(Cl)cc3)nc12` (centres unmarked) [Compound 261], the half-inhibitory concentration (IC50) fell in the range of 100 to 1000 nM.
The same measure, in the same setting: the figure for `CCCCCn1c(OC(CC(C)C)CC(C)C)cc(=O)n2cc(-c3ccc(Cl)cc3)nc12` [Compound 262] is 100 to 1000 nM; for `CCCCCCCCOc1cc(=O)n2cc(-c3ccc(Cl)cc3)nc2n1CCCCC` [Compound 263] it is 100 to 1000 nM.
Take `CCCCCn1c(Oc2cccnc2)cc(=O)n2cc(-c3ccc(Cl)cc3)nc12` [Compound 264]: the half-maximal inhibitory concentration (IC50) is 100 to 1000 nM.
Still for that read-out and setting: the value for `CCCCCn1c(Oc2ccc(-c3ccccc3)cc2)cc(=O)n2cc(-c3ccc(Cl)cc3)nc12` [Compound 265] was greater than 1000 nM; that for `CCCCCn1c(Oc2ccc(C(=O)CC)cc2)cc(=O)n2cc(-c3ccc(Cl)cc3)nc12` [Compound 266] was 100 to 1000 nM.
Same read-out and setting: the figure for `CCCCCn1c(OC23CCC(CC2)CC3)cc(=O)n2cc(-c3ccc(Cl)cc3)nc12` [Compound 267] is 100 to 1000 nM.
Take `CCCCCn1c(Oc2nccs2)cc(=O)n2cc(-c3ccc(Cl)cc3)nc12` [Compound 268]: the 50% inhibitory concentration (IC50) was less than 10 nM.
Same read-out and setting: the value for `CCCCCn1c(OCCOC)cc(=O)n2cc(-c3ccc(Cl)cc3)nc12` [Compound 269] was less than 10 nM; that for `CCCCCn1c(OC(C)(C)C)cc(=O)n2cc(-c3ccc(Cl)cc3)nc12` [Compound 270] was 100 to 1000 nM; that for `C#CCCCCCCCCCOc1cc(=O)n2cc(-c3ccc(Cl)cc3)nc2n1CCCCC` [Compound 271] was greater than 1000 nM.
With `CCCCCn1c(OC(C)C)cc(=O)n2cc(-c3ccc(Cl)cc3)nc12` [Compound 272], the IC50 was 10 to 100 nM.
Still for that read-out and setting: the figure for `CCCCCn1c(Oc2ccccn2)cc(=O)n2cc(-c3ccc(Cl)cc3)nc12` [Compound 273] is 100 to 1000 nM; for `CCCCCn1c(N2CC(O)C2)cc(=O)n2cc(-c3ccc(Cl)cc3)nc12` [Compound 274] it is less than 10 nM; for `CCCCCn1c(N2CCCC2CCCC)cc(=O)n2cc(-c3ccc(Cl)cc3)nc12` (centres unmarked) [Compound 277] it is 10 to 100 nM.
The same measure, in the same setting: the value for `CCCCCn1c(N2CCCC2CCCc2ccccc2)cc(=O)n2cc(-c3ccc(Cl)cc3)nc12` (centres unmarked) [Compound 278] was 10 to 100 nM.
The same measure, in the same setting: the figure for `CCCCCn1c(N2CCCC2CCC2CCCCC2)cc(=O)n2cc(-c3ccc(Cl)cc3)nc12` (centres unmarked) [Compound 279] is 10 to 100 nM; for `CCCCCn1c(N2CCCC2C(C)CCC)cc(=O)n2cc(-c3ccc(Cl)cc3)nc12` (centres unmarked) [Compound 280] it is 10 to 100 nM.
`O=C(O)C1CCN(c2cc(=O)n3cc(-c4ccc(Cl)cc4)nc3n2CCCC(F)(F)F)CC1` [Compound 283]: the IC50 was less than 10 nM.
On the same count and under the same terms, the figure for `N#Cc1ccc(-c2cn3c(=O)cc(N4CCC(C(=O)O)CC4)n(CCCC(F)(F)F)c3n2)cc1` [Compound 285] is less than 10 nM.
Consider `N#CCCCCn1c(NCc2ccc(C(=O)O)cc2)cc(=O)n2cc(-c3ccc(Cl)cc3)nc12` [Compound 286], for which the IC50 was less than 10 nM.
The same measure, in the same setting: the value for `O=C(O)c1ccc(CNc2cc(=O)n3cc(-c4ccc(Cl)cc4)nc3n2CCCC(F)(F)F)cc1` [Compound 287] was less than 10 nM.
Same read-out and setting: the figure for `N#Cc1ccc(-c2cn3c(=O)cc(NCc4ccc(C(=O)O)cc4)n(CCCC(F)(F)F)c3n2)cc1` [Compound 289] is less than 10 nM; for `CCCCCn1c(-c2ccccc2)cc(=O)n2cc(-c3ccc(Cl)cc3)nc12` [Compound 366] it is 10 to 100 nM; for `CCCCCn1c(CO)cc(=O)n2cc(-c3ccc(Cl)cc3)nc12` [Compound 367] it is less than 10 nM.
The same measure, in the same setting: the figure for `CCCCCn1c(-c2ccc(F)cc2)cc(=O)n2cc(-c3ccc(Cl)cc3)nc12` [Compound 368] is less than 10 nM; for `CCCCCn1c(CCC)cc(=O)n2cc(-c3ccc(Cl)cc3)nc12` [Compound 369] it is less than 10 nM.
Consider `CCCCCn1c(C=O)cc(=O)n2cc(-c3ccc(Cl)cc3)nc12` [Compound 370], for which the half-inhibitory concentration (IC50) is less than 10 nM.
On the same count and under the same terms, the figure for `CCCCCn1c(COCc2ccccc2)cc(=O)n2cc(-c3ccc(Cl)cc3)nc12` [Compound 371] is 10 to 100 nM; for `CCCCCn1c(C(=O)O)cc(=O)n2cc(-c3ccc(Cl)cc3)nc12` [Compound 372] it is 10 to 100 nM.
The same measure, in the same setting: the value for `CCCCCn1c(-c2ccc(C(=O)NCCN3CCOCC3)cc2)cc(=O)n2cc(-c3ccc(Cl)cc3)nc12` [Compound 374] was less than 10 nM; that for `N#CCCCCn1c(-c2ccc(C(N)=O)cc2)cc(=O)n2cc(-c3ccc(Cl)cc3)nc12` [Compound 379] was less than 10 nM; that for `N#CCCCCn1c(-c2ccc(C(=O)NCCN3CCOCC3)cc2)cc(=O)n2cc(-c3ccc(Cl)cc3)nc12` [Compound 380] was less than 10 nM.
Still for that read-out and setting: the figure for `CN(C)CCNC(=O)c1ccc(-c2cc(=O)n3cc(-c4ccc(C#N)cc4)nc3n2CCCCC#N)cc1` [Compound 384] is less than 10 nM.
For the compound `N#CCCCCn1c(-c2ccc(C(N)=O)cc2)cc(=O)n2cc(-c3ccc(C#N)cc3)nc12` [Compound 385], the IC50 was less than 10 nM.
Regarding `N#CCCCCn1c(-c2ccc(C(=O)NCCN3CCOCC3)cc2)cc(=O)n2cc(-c3ccc(C#N)cc3)nc12` [Compound 386], the IC50 is less than 10 nM.
`N#Cc1ccc(-c2cn3c(=O)cc(-c4ccc(C(=O)NCCN5CCOCC5)cc4)n(CCCC(F)(F)F)c3n2)cc1` [Compound 389]: the concentration for half-maximal inhibition (IC50) was less than 10 nM.
Same read-out and setting: the value for `CCCCCn1c(-c2cc3ccccc3o2)cc(=O)n2cc(-c3ccc(Cl)cc3)nc12` [Compound 392] was 100 to 1000 nM; that for `CCCCCn1c(-c2cc3ccccc3s2)cc(=O)n2cc(-c3ccc(Cl)cc3)nc12` [Compound 393] was 10 to 100 nM.
Same read-out and setting: the figure for `CCCCCn1c(-c2ccccc2OC)cc(=O)n2cc(-c3ccc(Cl)cc3)nc12` [Compound 395] is 10 to 100 nM; for `CCCCCn1c(-c2cccc(OC)c2)cc(=O)n2cc(-c3ccc(Cl)cc3)nc12` [Compound 396] it is 10 to 100 nM.
Regarding `CCCCCn1c(-c2ccc(OC)cc2)cc(=O)n2cc(-c3ccc(Cl)cc3)nc12` [Compound 397], the IC50 was less than 10 nM.

The assay is the same for the next values; noted with them: Inhibitory Activity (autotaxin enzyme inhibitory activity, IC50 class), Assay Method B (Test Example 2), human autotaxin.
`CCCCCn1c(NC2C[C@@H]3CC[C@H]2C3)cc(=O)n2cc(-c3ccc(Cl)cc3)nc12` (some centres unmarked) [Compound 252] gave an IC50 of 10 to 100 nM.

What is called IC50 is the concentration that inhibits the measured activity by half.

(Values after patent US20160002247A1, “8-SUBSTITUTED IMIDAZOPYRIMIDINONE DERIVATIVE HAVING AUTOTAXIN INHIBITORY ACTIVITY” (THE UNIVERSITY OF TOKYO, priority 2013, published 2016).)
